# Assay results from patent publication US20260070945A1, “MACROCYCLIC IMMUNOMODULATORS” (Bristol-Myers Squibb Company, priority 2022, published 2026).
# Where a SMILES comes first, the peptide text is derived from it. Bridges are numbered along the chain shown (N, C = ends). [ ]: non-standard residue; d: D form. The star is where a group is joined. ξ: configuration not given here. Bip = N[C@@H](Cc1ccc(-c2ccccc2)cc1)C(=O)O; Phe(3-Me) = Cc1cccc(C[C@H](N)C(=O)O)c1; Cyclopropanecarbonyl = O=C(C1CC1)*; Val(3-OH) = CC(C)(O)[C@H](N)C(=O)O; hArg = N=C(N)NCCCC[C@H](N)C(=O)O; 4Pal = N[C@@H](Cc1ccncc1)C(=O)O; Cha = N[C@@H](CC1CCCCC1)C(=O)O; Cit = NC(=O)NCCC[C@H](N)C(=O)O; Thr(3ξ) = CC(O)[C@H](N)C(=O)O; 12Ado = NCCCCCCCCCCCC(=O)O; Carboxymethyl = O=C(O)C*; NMeA = CN[C@@H](C)C(=O)O; Orn = NCCC[C@H](N)C(=O)O; Aun = NCCCCCCCCCCC(=O)O; Dab = NCC[C@H](N)C(=O)O; Dap = NC[C@H](N)C(=O)O; X12 = CC(C)(F)C(=O)*
# Target: T1, PD-1/PD-L1 interaction (PE-labeled human PD-L1-Ig binding to Jurkat cell line over-expressing human PD-1) (Homo sapiens, UniProt Q15116)
# T1 construct: expressed in transfected cells; host or cells: Jurkat
# Assay: Jurkat-PD-1 Cell Binding High-Content Screening Assay (CBA)
# Conditions: Jurkat-hPD-1 cells, PE-labeled PD-L1-Ig 20 nM final; read-out: Jurkat HPD1 PDL1 IC50
# Outline: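 High-content imaging read-out of PE-PD-L1-Ig binding (20 nM final, 1 h) to Jurkat-hPD-1 cells, after 2 h compound exposure at 37 °C in DMEM with 10% FCS. Nuclei counterstained with Hoechst 33342 after paraformaldehyde fixation.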
# T1 sequence (Q15116 25-288): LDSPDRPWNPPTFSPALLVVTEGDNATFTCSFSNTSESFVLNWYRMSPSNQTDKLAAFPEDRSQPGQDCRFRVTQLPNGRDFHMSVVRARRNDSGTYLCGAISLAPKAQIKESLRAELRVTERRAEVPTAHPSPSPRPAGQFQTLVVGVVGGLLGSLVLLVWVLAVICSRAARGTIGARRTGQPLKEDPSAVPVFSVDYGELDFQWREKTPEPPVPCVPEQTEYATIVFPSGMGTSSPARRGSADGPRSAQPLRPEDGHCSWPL
row,IC50 [nM],SMILES
1,15.7,Cc1cccc(C[C@@H]2NC(=O)[C@H](CC(=O)O)NC(=O)[C@H](Cc3ccc(OCC(=O)O)cc3)NC(=O)[C@H](C(C)O)NC(=O)CSC[C@@H](C(=O)N[C@@H](CCCN)C(=O)N[C@@H](CO)C(=O)NCCCCCCCCCCCC(=O)O)NC(=O)[C@H](CO)NC(=O)[C@H](C(C)(C)O)NC(=O)[C@H](CC3CCCCC3)NC(=O)[C@H](CCN)NC(=O)[C@@H](CC(C)C)NC(=O)[C@H](C)N(C)C(=O)[C@H](CCCNC(N)=O)NC(=O)[C@H](Cc3ccc(-c4ccccc4)cc3)NC(=O)[C@H](C(C)C)NC2=O)c1 (stereo partly drawn) [Example 2394] ({CH2CO}-[Thr(3ξ)]Y(Carboxymethyl)D[Phe(3-Me)]V[Bip][Cit][NMeA][dL][Dab][Cha][Val(3-OH)]SC[Orn]S[12Ado]-OH; thioether N-14)
2,16.6,Cc1cccc(C[C@@H]2NC(=O)[C@H](CC(=O)O)NC(=O)[C@H](Cc3ccc(OCC(=O)O)cc3)NC(=O)[C@H](CCCCNC(=N)N)NC(=O)CSC[C@@H](C(=O)N[C@@H](CCN)C(=O)NCCCCCCCCCCC(=O)O)NC(=O)[C@H](C(C)O)NC(=O)[C@H](C(C)C)NC(=O)[C@H](CC3CCCCC3)NC(=O)[C@H](CCN)NC(=O)[C@@H](CC(C)C)NC(=O)[C@H](C)N(C)C(=O)[C@H](CCCNC(=O)C3CC3)NC(=O)[C@H](Cc3ccc(-c4ccccc4)cc3)NC(=O)[C@H](Cc3ccc(O)cc3)NC2=O)c1 (stereo partly drawn) [Example 2398] ({CH2CO}-[hArg]Y(Carboxymethyl)D[Phe(3-Me)]Y[Bip][Orn](Cyclopropanecarbonyl)[NMeA][dL][Dab][Cha]V[Thr(3ξ)]C[Dab][Aun]-OH; thioether N-14)
3,14.1,Cc1cccc(C[C@@H]2NC(=O)[C@H](CC(=O)O)NC(=O)[C@H](Cc3ccc(OCC(=O)O)cc3)NC(=O)[C@H](CCCCNC(=N)N)NC(=O)CSC[C@@H](C(=O)N[C@@H](CCN)C(=O)NCCCCCCCCCCC(=O)O)NC(=O)[C@H](C(C)O)NC(=O)[C@H](C(C)C)NC(=O)[C@H](CC3CCCCC3)NC(=O)[C@H](CCN)NC(=O)[C@@H](CC(C)C)NC(=O)[C@H](C)N(C)C(=O)[C@H](CCCCNC(=O)C3CC3)NC(=O)[C@H](Cc3ccc(-c4ccccc4)cc3)NC(=O)[C@H](Cc3ccc(O)cc3)NC2=O)c1 (stereo partly drawn) [Example 2399] ({CH2CO}-[hArg]Y(Carboxymethyl)D[Phe(3-Me)]Y[Bip]K(Cyclopropanecarbonyl)[NMeA][dL][Dab][Cha]V[Thr(3ξ)]C[Dab][Aun]-OH; thioether N-14)
4,11,Cc1cccc(C[C@@H]2NC(=O)[C@H](CC(=O)O)NC(=O)[C@H](Cc3ccc(OCC(=O)O)cc3)NC(=O)[C@H](CCCNC(=O)C3CC3)NC(=O)CSC[C@@H](C(=O)N[C@@H](CCN)C(=O)NCCCCCCCCCCC(=O)O)NC(=O)[C@H](C(C)O)NC(=O)[C@H](C(C)C)NC(=O)[C@H](CC3CCCCC3)NC(=O)[C@H](CCN)NC(=O)[C@@H](CC(C)C)NC(=O)[C@H](C)N(C)C(=O)[C@H](CCCNC(N)=O)NC(=O)[C@H](Cc3ccc(-c4ccccc4)cc3)NC(=O)[C@H](Cc3ccc(O)cc3)NC2=O)c1 (stereo partly drawn) [Example 2400] ({CH2CO}-[Orn](Cyclopropanecarbonyl)Y(Carboxymethyl)D[Phe(3-Me)]Y[Bip][Cit][NMeA][dL][Dab][Cha]V[Thr(3ξ)]C[Dab][Aun]-OH; thioether N-14)
5,94.4,Cc1cccc(C[C@@H]2NC(=O)[C@H](CC(=O)O)NC(=O)[C@H](Cc3ccc(OCC(=O)O)cc3)NC(=O)[C@H](CCCNC(=O)C(C)(C)F)NC(=O)CSC[C@@H](C(=O)N[C@@H](CCCN)C(=O)N[C@@H](CO)C(=O)NCCCCCCCCCCCC(=O)O)NC(=O)[C@H](C(C)O)NC(=O)[C@H](C(C)C)NC(=O)[C@H](CC3CCCCC3)NC(=O)[C@H](CCN)NC(=O)[C@@H](CC(C)C)NC(=O)[C@H](C)N(C)C(=O)[C@H](CCCNC(N)=O)NC(=O)[C@H](Cc3ccc(-c4ccccc4)cc3)NC(=O)[C@H](Cc3ccc(O)cc3)NC2=O)c1 (stereo partly drawn) [Example 2401] ({CH2CO}-[Orn](X12)Y(Carboxymethyl)D[Phe(3-Me)]Y[Bip][Cit][NMeA][dL][Dab][Cha]V[Thr(3ξ)]C[Orn]S[12Ado]-OH; thioether N-14)
6,51.7,Cc1cccc(C[C@@H]2NC(=O)[C@H](CC(=O)O)NC(=O)[C@H](Cc3ccc(OCC(=O)O)cc3)NC(=O)[C@H](CN)NC(=O)CSC[C@@H](C(=O)N[C@@H](CCCN)C(=O)N[C@@H](CO)C(=O)NCCCCCCCCCCCC(=O)O)NC(=O)[C@H](C(C)O)NC(=O)[C@H](C(C)C)NC(=O)[C@H](CC3CCCCC3)NC(=O)[C@H](CCN)NC(=O)[C@@H](CC(C)C)NC(=O)[C@H](C)N(C)C(=O)[C@H](CCCNC(N)=O)NC(=O)[C@H](Cc3ccc(-c4ccccc4)cc3)NC(=O)[C@H](Cc3ccc(O)cc3)NC2=O)c1 (stereo partly drawn) [Example 2402] ({CH2CO}-[Dap]Y(Carboxymethyl)D[Phe(3-Me)]Y[Bip][Cit][NMeA][dL][Dab][Cha]V[Thr(3ξ)]C[Orn]S[12Ado]-OH; thioether N-14)
7,47.9,Cc1cccc(C[C@@H]2NC(=O)[C@H](CC(=O)O)NC(=O)[C@H](Cc3ccc(OCC(=O)O)cc3)NC(=O)[C@H](Cc3ccncc3)NC(=O)CSC[C@@H](C(=O)N[C@@H](CCCN)C(=O)N[C@@H](CO)C(=O)NCCCCCCCCCCCC(=O)O)NC(=O)[C@H](C(C)O)NC(=O)[C@H](C(C)C)NC(=O)[C@H](CC3CCCCC3)NC(=O)[C@H](CCN)NC(=O)[C@@H](CC(C)C)NC(=O)[C@H](C)N(C)C(=O)[C@H](CCCNC(=O)C3CC3)NC(=O)[C@H](Cc3ccc(-c4ccccc4)cc3)NC(=O)[C@H](Cc3ccc(O)cc3)NC2=O)c1 (stereo partly drawn) [Example 2403] ({CH2CO}-[4Pal]Y(Carboxymethyl)D[Phe(3-Me)]Y[Bip][Orn](Cyclopropanecarbonyl)[NMeA][dL][Dab][Cha]V[Thr(3ξ)]C[Orn]S[12Ado]-OH; thioether N-14)
8,40.9,Cc1cccc(C[C@@H]2NC(=O)[C@H](CC(=O)O)NC(=O)[C@H](Cc3ccc(OCC(=O)O)cc3)NC(=O)[C@H](Cc3ccncc3)NC(=O)CSC[C@@H](C(=O)N[C@@H](CCCN)C(=O)N[C@@H](CO)C(=O)NCCCCCCCCCCCC(=O)O)NC(=O)[C@H](C(C)O)NC(=O)[C@H](C(C)C)NC(=O)[C@H](CC3CCCCC3)NC(=O)[C@H](CCN)NC(=O)[C@@H](CC(C)C)NC(=O)[C@H](C)N(C)C(=O)[C@H](CCCCNC(=O)C3CC3)NC(=O)[C@H](Cc3ccc(-c4ccccc4)cc3)NC(=O)[C@H](Cc3ccc(O)cc3)NC2=O)c1 (stereo partly drawn) [Example 2404] ({CH2CO}-[4Pal]Y(Carboxymethyl)D[Phe(3-Me)]Y[Bip]K(Cyclopropanecarbonyl)[NMeA][dL][Dab][Cha]V[Thr(3ξ)]C[Orn]S[12Ado]-OH; thioether N-14)
9,75.3,CC(=O)NCCCC[C@@H]1NC(=O)[C@H](Cc2ccc(-c3ccccc3)cc2)NC(=O)[C@H](C(C)C)NC(=O)[C@H](Cc2c[nH]c3ccccc23)NC(=O)[C@H](CC(=O)O)NC(=O)[C@H](Cc2ccc(OCC(=O)O)cc2)NC(=O)[C@H](C(C)O)NC(=O)CSC[C@@H](C(=O)N[C@@H](CCCN)C(=O)N[C@@H](CO)C(=O)NCCCCCCCCCCCC(=O)O)NC(=O)[C@H](C(C)O)NC(=O)[C@H](C(C)C)NC(=O)[C@H](CC2CCCCC2)NC(=O)[C@H](CCN)NC(=O)[C@@H](CC(C)C)NC(=O)[C@H](C)N(C)C1=O (stereo partly drawn) [Example 2405] ({CH2CO}-[Thr(3ξ)]Y(Carboxymethyl)DWV[Bip]K(Ac)[NMeA][dL][Dab][Cha]V[Thr(3ξ)]C[Orn]S[12Ado]-OH; thioether N-14)
